# Assay results reported in ChEMBL document CHEMBL4382234, “Fluoroquinolone-isatin hybrids and their biological activities” (Eur J Med Chem, 2019).
# System: Salmonella typhi
# Experiment: Antibacterial activity against Salmonella typhi by agar dilution method
# Assay type: functional, Salmonella enterica subsp. enterica serovar Typhi
# Conditions: Salmonella enterica
row,Structure (SMILES),MIC
1,Cc1ccc2c(c1)C(=O)C(=O)N2CN1CCN(c2cc3c(cc2F)c(=O)c(C(=O)O)cn3C2CC2)CC1,0.1 to 0.5 µg/mL
2,O=C1C(=O)N(CN2CCN(c3cc4c(cc3F)c(=O)c(C(=O)O)cn4C3CC3)CC2)c2ccccc21,0.1 to 0.5 µg/mL
3,CCn1cc(C(=O)O)c(=O)c2cc(F)c(N3CCN(CN4C(=O)C(=O)c5cc(C)ccc54)C(C)C3)c(F)c21 (stereo not given),0.25 to 2.5 µg/mL
4,CCn1cc(C(=O)O)c(=O)c2cc(F)c(N3CCN(CN4C(=O)C(=O)c5ccccc54)C(C)C3)c(F)c21 (stereo not given),0.25 to 2.5 µg/mL
5,O=C(O)c1cn(C2CC2)c2cc(N3CCNCC3)c(F)cc2c1=O [CIPROFLOXACIN],0.1 to 2.5 µg/mL

# System: not listed separately
# Experiment: Toxicity in po dosed CF mouse measured after 1 week
# Assay type: organism-based
# Conditions: in vivo
row,Structure (SMILES),LD50 at 168 h
1,CCn1cc(C(=O)O)c(=O)c2cc(F)c(N3CCNCC3)cc21 [NORFLOXACIN],4000 mg/kg
2,CCn1cc(C(=O)O)c(=O)c2cc(F)c(N3CCN(CN4C(=O)/C(=N\c5ccc(S(=O)(=O)Nc6ncccn6)cc5)c5ccccc54)CC3)cc21,> 4000 mg/kg

# System: Mycobacterium tuberculosis
# Experiment: Antitubercular activity against Mycobacterium tuberculosis infected in IFNgamma-deficient C57BL/6 mouse assessed bacterial load in spleen at 25 mg/kg administered once daily for 8 days measured 28 days post infection
# Assay type: functional
# Conditions: not given
row,Structure (SMILES),Activity
1,COc1cc(Cc2cnc(/N=C3\C(=O)N(CN4CCN(c5cc6c(cc5F)c(=O)c(C(=O)O)cn6C5CC5)CC4)c4ccc(F)cc43)nc2N)cc(OC)c1OC,4.08 log10CFU
2,O=C(O)c1cn(C2CC2)c2cc(N3CCNCC3)c(F)cc2c1=O [CIPROFLOXACIN],4.64 log10CFU

# System: Escherichia coli
# Experiment: Antibacterial activity against Escherichia coli NCTC 10418 infected in po dosed CF mouse measured after 1 week
# Assay type: functional
# Conditions: NCTC 10418, po, 168 h
row,Structure (SMILES),ED50
1,CCn1cc(C(=O)O)c(=O)c2cc(F)c(N3CCN(CN4C(=O)/C(=N\c5ncc(Cc6cc(OC)c(OC)c(OC)c6)c(N)n5)c5cc(Br)ccc54)CC3)cc21,1.62 mg/kg
2,CCn1cc(C(=O)O)c(=O)c2cc(F)c(N3CCNCC3)cc21 [NORFLOXACIN],6 mg/kg
3,CCn1cc(C(=O)O)c(=O)c2cc(F)c(N3CCN(CN4C(=O)/C(=N\c5ccc(S(=O)(=O)Nc6ncccn6)cc5)c5ccccc54)CC3)cc21,1.25 mg/kg

# System: Escherichia coli
# Experiment: Antibacterial activity against Escherichia coli by agar dilution method
# Assay type: functional
# Conditions: not given
row,Structure (SMILES),MIC
1,Cc1ccc2c(c1)C(=O)C(=O)N2CN1CCN(c2cc3c(cc2F)c(=O)c(C(=O)O)cn3C2CC2)CC1,0.1 to 0.5 µg/mL
2,O=C1C(=O)N(CN2CCN(c3cc4c(cc3F)c(=O)c(C(=O)O)cn4C3CC3)CC2)c2ccccc21,0.1 to 0.5 µg/mL
3,CCn1cc(C(=O)O)c(=O)c2cc(F)c(N3CCN(CN4C(=O)C(=O)c5cc(C)ccc54)C(C)C3)c(F)c21 (stereo not given),0.25 to 2.5 µg/mL
4,CCn1cc(C(=O)O)c(=O)c2cc(F)c(N3CCN(CN4C(=O)C(=O)c5ccccc54)C(C)C3)c(F)c21 (stereo not given),0.25 to 2.5 µg/mL
5,O=C(O)c1cn(C2CC2)c2cc(N3CCNCC3)c(F)cc2c1=O [CIPROFLOXACIN],0.1 to 2.5 µg/mL

# System: Klebsiella pneumoniae
# Experiment: Antibacterial activity against Klebsiella pneumoniae by agar dilution method
# Assay type: functional
# Conditions: not given
row,Structure (SMILES),MIC
1,Cc1ccc2c(c1)C(=O)C(=O)N2CN1CCN(c2cc3c(cc2F)c(=O)c(C(=O)O)cn3C2CC2)CC1,0.1 to 0.5 µg/mL
2,O=C1C(=O)N(CN2CCN(c3cc4c(cc3F)c(=O)c(C(=O)O)cn4C3CC3)CC2)c2ccccc21,0.1 to 0.5 µg/mL
3,CCn1cc(C(=O)O)c(=O)c2cc(F)c(N3CCN(CN4C(=O)C(=O)c5cc(C)ccc54)C(C)C3)c(F)c21 (stereo not given),0.25 to 2.5 µg/mL
4,CCn1cc(C(=O)O)c(=O)c2cc(F)c(N3CCN(CN4C(=O)C(=O)c5ccccc54)C(C)C3)c(F)c21 (stereo not given),0.25 to 2.5 µg/mL
5,O=C(O)c1cn(C2CC2)c2cc(N3CCNCC3)c(F)cc2c1=O [CIPROFLOXACIN],0.1 to 2.5 µg/mL

# System: Staphylococcus aureus
# Experiment: Antibacterial activity against Staphylococcus aureus by agar dilution method
# Assay type: functional
# Conditions: not given
row,Structure (SMILES),MIC
1,Cc1ccc2c(c1)C(=O)C(=O)N2CN1CCN(c2cc3c(cc2F)c(=O)c(C(=O)O)cn3C2CC2)CC1,0.1 to 0.5 µg/mL
2,O=C1C(=O)N(CN2CCN(c3cc4c(cc3F)c(=O)c(C(=O)O)cn4C3CC3)CC2)c2ccccc21,0.1 to 0.5 µg/mL
3,CCn1cc(C(=O)O)c(=O)c2cc(F)c(N3CCN(CN4C(=O)C(=O)c5cc(C)ccc54)C(C)C3)c(F)c21 (stereo not given),0.25 to 2.5 µg/mL
4,CCn1cc(C(=O)O)c(=O)c2cc(F)c(N3CCN(CN4C(=O)C(=O)c5ccccc54)C(C)C3)c(F)c21 (stereo not given),0.25 to 2.5 µg/mL
5,O=C(O)c1cn(C2CC2)c2cc(N3CCNCC3)c(F)cc2c1=O [CIPROFLOXACIN],0.1 to 2.5 µg/mL

# System: Shigella flexneri
# Experiment: Antibacterial activity against Shigella flexneri by agar dilution method
# Assay type: functional
# Conditions: not given
row,Structure (SMILES),MIC
1,Cc1ccc2c(c1)C(=O)C(=O)N2CN1CCN(c2cc3c(cc2F)c(=O)c(C(=O)O)cn3C2CC2)CC1,0.1 to 0.5 µg/mL
2,O=C1C(=O)N(CN2CCN(c3cc4c(cc3F)c(=O)c(C(=O)O)cn4C3CC3)CC2)c2ccccc21,0.1 to 0.5 µg/mL
3,CCn1cc(C(=O)O)c(=O)c2cc(F)c(N3CCN(CN4C(=O)C(=O)c5cc(C)ccc54)C(C)C3)c(F)c21 (stereo not given),0.25 to 2.5 µg/mL
4,CCn1cc(C(=O)O)c(=O)c2cc(F)c(N3CCN(CN4C(=O)C(=O)c5ccccc54)C(C)C3)c(F)c21 (stereo not given),0.25 to 2.5 µg/mL
5,O=C(O)c1cn(C2CC2)c2cc(N3CCNCC3)c(F)cc2c1=O [CIPROFLOXACIN],0.1 to 2.5 µg/mL

# System: Mycobacterium tuberculosis
# Experiment: Antitubercular activity against Mycobacterium tuberculosis H37Rv by microplate alamar blue assay
# Assay type: functional
# Conditions: not given
row,Structure (SMILES),MIC
1,COc1cc(Cc2cnc(/N=C3\C(=O)N(CN4CCN(c5cc6c(cc5F)c(=O)c(C(=O)O)cn6C5CC5)CC4)c4ccc(F)cc43)nc2N)cc(OC)c1OC,0.78 µg/mL
2,O=C(O)c1cn(C2CC2)c2cc(N3CCNCC3)c(F)cc2c1=O [CIPROFLOXACIN],2 µg/mL

# System: Vibrio cholerae
# Experiment: Antibacterial activity against Vibrio cholerae by agar dilution method
# Assay type: functional
# Conditions: not given
row,Structure (SMILES),MIC
1,Cc1ccc2c(c1)C(=O)C(=O)N2CN1CCN(c2cc3c(cc2F)c(=O)c(C(=O)O)cn3C2CC2)CC1,0.1 to 0.5 µg/mL
2,O=C1C(=O)N(CN2CCN(c3cc4c(cc3F)c(=O)c(C(=O)O)cn4C3CC3)CC2)c2ccccc21,0.1 to 0.5 µg/mL
3,CCn1cc(C(=O)O)c(=O)c2cc(F)c(N3CCN(CN4C(=O)C(=O)c5cc(C)ccc54)C(C)C3)c(F)c21 (stereo not given),0.25 to 2.5 µg/mL
4,CCn1cc(C(=O)O)c(=O)c2cc(F)c(N3CCN(CN4C(=O)C(=O)c5ccccc54)C(C)C3)c(F)c21 (stereo not given),0.25 to 2.5 µg/mL
5,O=C(O)c1cn(C2CC2)c2cc(N3CCNCC3)c(F)cc2c1=O [CIPROFLOXACIN],0.1 to 2.5 µg/mL

# System: Pseudomonas aeruginosa
# Experiment: Antibacterial activity against Pseudomonas aeruginosa by agar dilution method
# Assay type: functional
# Conditions: not given
row,Structure (SMILES),MIC
1,Cc1ccc2c(c1)C(=O)C(=O)N2CN1CCN(c2cc3c(cc2F)c(=O)c(C(=O)O)cn3C2CC2)CC1,0.1 to 0.5 µg/mL
2,O=C1C(=O)N(CN2CCN(c3cc4c(cc3F)c(=O)c(C(=O)O)cn4C3CC3)CC2)c2ccccc21,0.1 to 0.5 µg/mL
3,CCn1cc(C(=O)O)c(=O)c2cc(F)c(N3CCN(CN4C(=O)C(=O)c5cc(C)ccc54)C(C)C3)c(F)c21 (stereo not given),0.25 to 2.5 µg/mL
4,CCn1cc(C(=O)O)c(=O)c2cc(F)c(N3CCN(CN4C(=O)C(=O)c5ccccc54)C(C)C3)c(F)c21 (stereo not given),0.25 to 2.5 µg/mL
5,O=C(O)c1cn(C2CC2)c2cc(N3CCNCC3)c(F)cc2c1=O [CIPROFLOXACIN],0.1 to 2.5 µg/mL

# System: Citrobacter freundii
# Experiment: Antibacterial activity against Citrobacter freundii by agar dilution method
# Assay type: functional
# Conditions: not given
row,Structure (SMILES),MIC
1,Cc1ccc2c(c1)C(=O)C(=O)N2CN1CCN(c2cc3c(cc2F)c(=O)c(C(=O)O)cn3C2CC2)CC1,0.1 to 0.5 µg/mL
2,O=C1C(=O)N(CN2CCN(c3cc4c(cc3F)c(=O)c(C(=O)O)cn4C3CC3)CC2)c2ccccc21,0.1 to 0.5 µg/mL
3,CCn1cc(C(=O)O)c(=O)c2cc(F)c(N3CCN(CN4C(=O)C(=O)c5cc(C)ccc54)C(C)C3)c(F)c21 (stereo not given),0.25 to 2.5 µg/mL
4,CCn1cc(C(=O)O)c(=O)c2cc(F)c(N3CCN(CN4C(=O)C(=O)c5ccccc54)C(C)C3)c(F)c21 (stereo not given),0.25 to 2.5 µg/mL
5,O=C(O)c1cn(C2CC2)c2cc(N3CCNCC3)c(F)cc2c1=O [CIPROFLOXACIN],0.1 to 2.5 µg/mL

# System: Human immunodeficiency virus 1
# Experiment: Antiviral activity against HIV1 3B infected in human MT4 cells after 5 days by spectrophotometric method
# Assay type: functional, organism-based
# Conditions: Human immunodeficiency virus 1, 3B, MT4, 120 h
row,Structure (SMILES),EC50
1,CCn1cc(C(=O)O)c(=O)c2cc(F)c(N3CCN(CN4C(=O)/C(=N\NC(N)=S)c5cc(Br)ccc54)CC3)cc21,13.9 µg/mL
2,CCn1cc(C(=O)O)c(=O)c2cc(F)c(N3CCN(CN4C(=O)/C(=N\NC(N)=S)c5cc(Cl)ccc54)CC3)cc21,11.3 µg/mL

# System: Escherichia coli
# Experiment: Potency index, ratio of norfloxacin ED50 to test compound ED50 for antibacterial activity against Escherichia coli NCTC 10418 infected in po dosed CF mouse
# Assay type: functional
# Conditions: not given
row,Structure (SMILES),Ratio
1,CCn1cc(C(=O)O)c(=O)c2cc(F)c(N3CCN(CN4C(=O)/C(=N\c5ncc(Cc6cc(OC)c(OC)c(OC)c6)c(N)n5)c5cc(Br)ccc54)CC3)cc21,3.7
2,CCn1cc(C(=O)O)c(=O)c2cc(F)c(N3CCN(CN4C(=O)/C(=N\c5ccc(S(=O)(=O)Nc6ncccn6)cc5)c5ccccc54)CC3)cc21,4.8

# System: Staphylococcus epidermidis
# Experiment: Antibacterial activity against Staphylococcus epidermidis by agar dilution method
# Assay type: functional
# Conditions: not given
row,Structure (SMILES),MIC
1,Cc1ccc2c(c1)C(=O)C(=O)N2CN1CCN(c2cc3c(cc2F)c(=O)c(C(=O)O)cn3C2CC2)CC1,0.1 to 0.5 µg/mL
2,O=C1C(=O)N(CN2CCN(c3cc4c(cc3F)c(=O)c(C(=O)O)cn4C3CC3)CC2)c2ccccc21,0.1 to 0.5 µg/mL
3,CCn1cc(C(=O)O)c(=O)c2cc(F)c(N3CCN(CN4C(=O)C(=O)c5cc(C)ccc54)C(C)C3)c(F)c21 (stereo not given),0.25 to 2.5 µg/mL
4,CCn1cc(C(=O)O)c(=O)c2cc(F)c(N3CCN(CN4C(=O)C(=O)c5ccccc54)C(C)C3)c(F)c21 (stereo not given),0.25 to 2.5 µg/mL
5,O=C(O)c1cn(C2CC2)c2cc(N3CCNCC3)c(F)cc2c1=O [CIPROFLOXACIN],0.1 to 2.5 µg/mL

# System: Mycobacterium tuberculosis
# Experiment: Antitubercular activity against Mycobacterium tuberculosis infected in IFNgamma-deficient C57BL/6 mouse assessed bacterial load in lung at 25 mg/kg administered once daily for 8 days measured 28 days post infection
# Assay type: functional
# Conditions: not given
row,Structure (SMILES),Activity
1,COc1cc(Cc2cnc(/N=C3\C(=O)N(CN4CCN(c5cc6c(cc5F)c(=O)c(C(=O)O)cn6C5CC5)CC4)c4ccc(F)cc43)nc2N)cc(OC)c1OC,5.26 log10CFU
2,O=C(O)c1cn(C2CC2)c2cc(N3CCNCC3)c(F)cc2c1=O [CIPROFLOXACIN],6.82 log10CFU
